{"source": "patent US20070286886A1", "about": "“Materials And Methods For Inducing Apoptosis In Adipocytes” (University of Tennessee Research Foundation, priority 2004, published 2007)", "key": {"[1]": {"test_system": "caspase-1", "assay": "Caspase-1 mRNA expression by real-time PCR in 3T3-L1 and UCP2-transfected 3T3-L1 adipocytes", "format": "cell-based", "conditions": "DNP 25 μM and 50 μM, 24 h; P<0.05", "description": "(§1) 3T3-L1 preadipocytes were incubated at a density of 8000 cells/cm2 (10 cm2 dish) and grown in Dulbecco's modified Eagle's medium (DMEM) containing 10% FBS and antibiotics (adipocyte medium) at 37° C. in 5% CO2 in air. Confluent preadipocytes were induced to differentiate with a standard differentiation medium consisting of DMEM-F10 (1:1, vol/vol) medium supplemented with 1% FBS, 1 μM dexamethasone, IBMX (0.5 mM), and antibiotics (1% penicillin-streptomycin). Preadipocytes were maintained in this differentiation medium for 3 days and subsequently cultured in adipocyte medium. Cultures were re-fed every 2-3 days to allow 90% cells to reach full differentiation before they were chemically treated. Chemicals were freshly diluted in adipocyte medium before treatment. Cells were washed with fresh adipocyte medium, re-fed with medium containing the different treatments, and incubated at 37° C. in 5% CO2 in air before analysis. Cell viability was measured via trypan blue exclusion.\n(§2) UCP2 full-length cDNAs were amplified by […] using mRNAs isolated from mouse white adipose tissues. The PCR primers for this amplification are shown as follows: UCP2 forward, 5′-[…]-3′, reverse, 5′-[…]-3′. The PCR products were then subcloned into pcDNA4/His expression vectors. The linearized constructs were transfected into 3T3-L1 preadipocytes using lipofectamine plus standard protocol (Invitrogen, Carlsbad, Calif.). After 48 h of transfection, cells were split and cultured in selective medium containing 400 ug/ml zeocin for the selection of resistant colonies. […]\n(§3) Adipocyte caspase-1, caspase-3, Bcl-2, and Bax mRNA were quantitatively measured using a Smart Cycler Real Time PCR System (Cepheid, Sunnyvale, Calif.) with a TaqMan 1000 Core Reagent Kit (Applied Biosystems, Branchburg, N.J.). […] Reactions of quantitative RT-PCR for standards and unknown samples were Cepheid, Sunnyvale, Calif.) and TaqMan Real Time PCR Core Kit. The mRNA quantitation for each sample was further normalized using the corresponding 18 s quantitation, with a forward primer, 5′-[…]-3′, and a reverse primer, 5′-[…]-3′."}, "[2]": {"test_system": "caspase-3", "assay": "Caspase-3 mRNA expression by real-time PCR in 3T3-L1 and UCP2-transfected 3T3-L1 adipocytes", "format": "cell-based", "description": "as §1\nUCP2 full-length cDNAs were amplified by […] using mRNAs isolated from mouse white adipose tissues. The PCR primers for this amplification are shown as follows: UCP2 forward, 5′-[…]-3′, reverse, 5′-[…]-3′. The PCR products were then subcloned into pcDNA4/His expression vectors. The linearized constructs were transfected into 3T3-L1 preadipocytes using lipofectamine plus standard protocol (Invitrogen, Carlsbad, Calif.). After 48 h of transfection, cells were split and cultured in selective medium containing 400 ug/ml zeocin for the selection of resistant colonies. Cells were fed with selective medium every 3 days until resistant colonies could be identified. These resistant foci were picked, expanded, tested for expression, and frozen for future experiments.\nA total cellular RNA isolation kit (Ambion, Austin, Tex.) was used to extract total RNA from 3T3-L1 cells according to the manufacturer's instructions.\nAdipocyte caspase-1, caspase-3, Bcl-2, and Bax mRNA were quantitatively measured using a Smart Cycler Real Time PCR System (Cepheid, Sunnyvale, Calif.) with a TaqMan 1000 Core Reagent Kit (Applied Biosystems, Branchburg, N.J.). The primers and probe sets were ordered from Applied Biosystems TaqMan Assays-on-Demand Gene Expression primers and probe set collection according to the manufacturer's instructions. Pooled 3T3-L1 adipocyte total RNA was serial-diluted in the range of 1.5625-25 ng and used to establish a standard curve; total RNAs for unknown samples were also diluted in this range. Reactions of quantitative RT-PCR for standards and unknown samples were Cepheid, Sunnyvale, Calif.) and TaqMan Real Time PCR Core Kit. The mRNA quantitation for each sample was further normalized using the corresponding 18 s quantitation, with a forward primer, 5′-[…]-3′, and a reverse primer, 5′-[…]-3′.\n3T3-L1 preadipocytes were incubated at a density of 8000 cells/cm2 (10 cm2 dish) and grown in Dulbecco's modified Eagle's medium (DMEM) containing 10% FBS and antibiotics at 37° C. in 5% CO2. Confluent preadipocytes were induced to differentiate with a standard differentiation medium consisting of DMEM-F 10 (1:1, vol/vol) medium supplemented with 1% FBS, 1 μM dexamethasone, IBMX (0.5 mM) and antibiotics (1% penicillin/streptomycin). Preadipocytes were maintained in this differentiation medium for 3 days and subsequently cultured in adipocyte medium. Cultures were re-fed every 2-3 days to allow 90% cells to reach fully differentiation before conducting chemical treatment. Chemicals were freshly diluted in adipocyte medium before treatment. Cells were washed with fresh adipocyte medium, re-fed with medium containing the different treatments, and incubated at 37° C. in 5% CO2 in air before analysis. Cell viability was measured via trypan blue exclusion.\nAdipocytes were incubated with adipocyte medium for 24 h with or without GDP, BK 8644, GDP plus BK8644 before total RNA extraction. […]"}, "[3]": {"test_system": "Bcl-2/Bax", "assay": "Bcl-2/Bax expression ratio by real-time PCR in 3T3-L1 and UCP2-transfected 3T3-L1 adipocytes", "format": "cell-based", "conditions": "DNP 25 μM and 50 μM, 24 h; P<0.02", "description": "as §1, §2, §3"}, "[4]": {"test_system": "3T3-L1 and UCP2-transfected 3T3-L1 cells", "assay": "Mitochondrial membrane potential (JC-1 fluorometry) in adipocytes", "format": "cell-based", "conditions": "for increase in mitochondrial potential: p<0.05", "description": "(§4) Adipocytes were incubated with adipocyte medium for 4 h with or without 1α,25-(OH)2-D3. Mitochondrial membrane potential was analyzed fluorometrically with a lipophilic cationic dye JC-1 (5,5′,6,6′-tetrachloro-1,1′,3,3′-tetraethylbenzimidazol carbocyanine iodide) using a mitochondrial potential detection kit (Biocarta, San Diego, Calif.). Mitochondrial potential was determined as the ratio of red fluorescence (excitation 550 nm, emission 600 nm) and green fluorescence (excitation 485 nm, emission 535 nm) using a fluorescence microplate reader.\nas §4, with “GDP, BK 8644, GDP plus BK8644.” for “1α,25-(OH)2-D3.”"}, "[5]": {"test_system": "3T3-L1 and UCP2-transfected 3T3-L1 adipocytes", "assay": "Cytosolic/intracellular calcium (fura-2 dual-wavelength fluorescence imaging) in adipocytes", "format": "cell-based", "conditions": "3T3-L1 cells; data not shown"}, "[6]": {"test_system": "UCP2", "assay": "UCP2 expression in 3T3-L1 cells (western blot, UCP2/actin)", "format": "cell-based, mouse", "conditions": "siRNA transfected 3T3-L1 cells, 48 hrs after transfection", "description": "Duplex siRNA corresponding to UCP2 gene was designed and chemically synthesized by Invitrogen. The following gene-specific sequences were used successfully: Si-UCP2 sense 5′-GCCUCUACGACUCUGUCAA-3′ and antisense […]. Transfection of siRNA was performed with Oligofectamine™ reagent (Invitrogen Life Technologies, CA) in 6-well plates. Briefly, Oligofectamine diluted in DMEM was applied to the duplex siRNA mixture, and the formulation was continued for 20 min to allow the Oligofectamine-oligonucleotide complex to form. Per well, 800 μl of plating medium and 10 ul of 20 μM duplex siRNA duplex siRNA formulated with 4 μl of Oligofectamine were applied in a final volume of 1 ml. Cells were then incubated at […] in a CO2 incubator for 4 hrs. […]\nAdipocytes were harvested and sonicated in a homogenization buffer containing 50 mM Tris-HCl (PH 7.4), 250 mM sucrose, 1 mM EDTA, 1 mM dithiothreitol, 1% (v/v) Triton X, 10% protease cocktail (Sigma). […] Homogenate intrafranatant protein from equal numbers of cells (determined via protein quantitation using Bradford method as described previously) was boiled in Laemmli sample buffer and subject to 10% SDS-polyacrylamide gel electrophoresis (PAGE). […] Visualization was detected with chemiluminescence reagent, using the Western Blotting Luminal Reagent (Santa Cruz Biotechnology, CA)."}, "[7]": {"conditions": "siRNA transfected 3T3-L1 cells (UCP2 ko) vs control"}}}
{"compound": "O=[N+]([O-])c1ccc(O)c([N+](=O)[O-])c1", "note": "[DNP, 2,4-dinitrophenol]", "values": [{"measurement": "basal caspase-1 expression level compared with control cells", "setting": "[1]", "result": "significantly higher"}, {"measurement": "basal caspase-3 expression level compared with control cells", "setting": "[2]; DNP 25 μM and 50 μM, 24 h, P<0.05", "result": "significantly higher"}, {"measurement": "Bcl-2/Bax ratio versus nontransfected 3T3-L1 cells", "setting": "[3]", "result": "significantly lower"}]}
{"compound": "Nc1nc2c(ncn2[C@@H]2O[C@H](COP(=O)(O)OP(=O)(O)O)[C@@H](O)[C@H]2O)c(=O)[nH]1", "note": "[GDP, guanosine 5′-diphosphate]", "values": [{"measurement": "suppression of caspase-3 expression in BK8644 pretreated cells", "setting": "[2]; 3T3-L1 cells pretreated with BK8644, p<0.05", "result": 45, "unit": "%"}, {"measurement": "increase in mitochondrial potential", "setting": "[4]; 100 μM, 3T3-L1 cells, 4 h", "result": 27, "unit": "%"}, {"measurement": "increase in mitochondrial potential", "setting": "[4]; 500 μM, 3T3-L1 cells, 4 h", "result": 48, "unit": "%"}, {"measurement": "mitochondrial potential", "setting": "[4]; 3T3-L1 cells, GDP", "result": "increased"}, {"measurement": "[Ca2+]i level", "setting": "[5]", "result": "decreased"}]}
{"compound": "siRNA: duplex siRNA corresponding to UCP2 gene, sense 5′-GCCUCUACGACUCUGUCAA-3′ (antisense UUGACAGAGUCGAGGC; chemistry not given here)", "values": [{"measurement": "decrease in caspase-3 expression", "setting": "[2]; [7]", "result": 58, "unit": "%"}, {"measurement": "increase in mitochondrial potential", "setting": "[4]; [7]", "result": 52, "unit": "%"}, {"measurement": "decrease in UCP2 expression", "setting": "[6]", "result": 70, "unit": "%"}]}
